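Step 1: Grow cells in 96-well plates. Step 2: Expose to compound for 48 hours at 5 concentrations. Step 3: Interpolate endpoints linearly; if unreached, use highest concentration. Abbreviation: GI50, concentration required for 50% inhibition of growth.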 Activity calls are given as the source filed them. No stated cut-off is given here; in the data, active = GI50 up to about 1.1 µM and inactive = higher.
Experiments:
Experiment in all cases: NCI tumour cell line growth inhibition, 48 h
[1] = test system: SK-MEL-2
[2] = test system: A549
[3] = test system: KM12
[4] = test system: HCT-15
[5] = test system: Malme-3M
[6] = test system: UACC-257
[7] = test system: MOLT-4
[8] = test system: NCI-H460
[9] = test system: MDA-MB-231
[10] = test system: SK-MEL-28
[11] = test system: 786-0
[12] = test system: MCF7
[13] = test system: NCI-H226
[14] = test system: HT-29
[15] = test system: A498
[16] = test system: OVCAR-4
[17] = test system: RXF 393
[18] = test system: LOX IMVI
[19] = test system: NCI-H522
[20] = test system: HOP-62

| SMILES | GI50 [1] | GI50 [2] | GI50 [3] | GI50 [4] | GI50 [5] | GI50 [6] | GI50 [7] | GI50 [8] | GI50 [9] | GI50 [10] | GI50 [11] | GI50 [12] | GI50 [13] | GI50 [14] | GI50 [15] | GI50 [16] | GI50 [17] | GI50 [18] | GI50 [19] | GI50 [20] |
| --- | --- | --- | --- | --- | --- | --- | --- | --- | --- | --- | --- | --- | --- | --- | --- | --- | --- | --- | --- | --- |
| CC(C)(C)c1ccc(OCC(=O)O)c(Cl)c1 | > 100 µM (inactive) | > 100 µM (inactive) | > 100 µM (inactive) | > 100 µM | > 100 µM (inactive) | > 100 µM (inactive) | > 100 µM (inactive) | > 100 µM (inactive) | > 100 µM (inactive) | > 100 µM (inactive) | > 100 µM (inactive) | > 100 µM (inactive) | > 100 µM (inactive) | > 100 µM (inactive) | > 100 µM (inactive) | > 100 µM (inactive) | > 100 µM (inactive) | > 100 µM (inactive) | > 100 µM (inactive) | > 100 µM (inactive) |
| CCOP(=O)(OCC)/C(C#N)=C\c1cccc2ccccc12 | > 62.1 µM (inactive) | > 100 µM (inactive) | > 74.8 µM (inactive) | 42.7 µM | 42.7 µM (inactive) | 71.3 µM (inactive) | 35.4 µM (inactive) | > 91.8 µM (inactive) | 40.6 µM (inactive) | 28.2 µM (inactive) | > 71.4 µM (inactive) | 39.9 µM (inactive) | 32.4 µM (inactive) | > 66.1 µM (inactive) | 44.5 µM (inactive) | > 75.3 µM (inactive) | 31.6 µM (inactive) | 20.9 µM (inactive) | > 88.1 µM (inactive) | > 56.6 µM (inactive) |
| CC(=O)c1[nH]c(Nc2ccc(C)cc2)c(C(=S)Nc2ccccc2)c1N | 15.5 µM (inactive) | 14.9 µM (inactive) | 15.9 µM (inactive) | 18.3 µM | 17.1 µM (inactive) | 18.5 µM (inactive) | 30.1 µM (inactive) | 15.7 µM (inactive) | 16.5 µM (inactive) | 19.5 µM (inactive) | 17.7 µM (inactive) | 15.7 µM (inactive) | 14.4 µM (inactive) | 25.8 µM (inactive) | 13.8 µM (inactive) | 17.5 µM (inactive) | 13.3 µM (inactive) | 16.4 µM (inactive) | 15.6 µM (inactive) | 20.8 µM (inactive) |
| CN1CCN(C(=O)CCC(=O)Nc2cc3c(c4ccccc24)-c2ccc4ccccc4c2C3)CC1 | 1.97 µM (inactive) | 1.96 µM (inactive) | 1.55 µM (inactive) | 1.82 µM | 2.03 µM (inactive) | 1.74 µM (inactive) | 1.77 µM (inactive) | 1.82 µM (inactive) | 1.26 µM (inactive) | 1.79 µM (inactive) | 1.69 µM (inactive) | 1.51 µM (inactive) | 1.76 µM (inactive) | 1.72 µM (inactive) | 13.8 µM (inactive) | 1.5 µM (inactive) | 1.73 µM (inactive) | 1.77 µM (inactive) | 1.63 µM (inactive) | 1.69 µM (inactive) |
| CC(C)(C)OC(=O)N1CCC2(CC1)C(=O)NCN2c1ccccc1 | > 100 µM (inactive) | > 100 µM (inactive) | > 100 µM (inactive) | > 100 µM | > 100 µM (inactive) | > 100 µM (inactive) | > 100 µM (inactive) | > 100 µM (inactive) | > 100 µM (inactive) | > 100 µM (inactive) | > 100 µM (inactive) | > 100 µM (inactive) | > 100 µM (inactive) | > 100 µM (inactive) | > 100 µM (inactive) | > 100 µM (inactive) | > 100 µM (inactive) | > 100 µM (inactive) | > 100 µM (inactive) | > 100 µM (inactive) |
| O=C(NCCCNCCCCNCCCNC(=O)C(F)(F)F)C(F)(F)F | > 100 µM (inactive) | > 100 µM (inactive) | > 100 µM (inactive) | > 100 µM | > 100 µM (inactive) | > 100 µM (inactive) | 0.359 µM (active) | > 100 µM (inactive) | > 100 µM (inactive) | > 100 µM (inactive) | > 100 µM (inactive) | > 100 µM (inactive) | > 100 µM (inactive) | > 100 µM (inactive) | > 100 µM (inactive) | > 100 µM (inactive) | > 100 µM (inactive) | > 100 µM (inactive) | > 100 µM (inactive) | > 100 µM (inactive) |
| O=C(/C=C/c1ccc(OCCSCCCCCCCCCCSCCOc2ccc(/C=C/C(=O)c3ccc(Cl)cc3)cc2)cc1)c1ccc(Cl)cc1 | 61.8 µM (inactive) | > 100 µM (inactive) | > 100 µM (inactive) | > 100 µM | > 100 µM (inactive) | > 100 µM (inactive) | > 100 µM (inactive) | > 100 µM (inactive) | > 100 µM (inactive) | > 100 µM (inactive) | 75.3 µM (inactive) | > 100 µM (inactive) | > 76.2 µM (inactive) | > 100 µM (inactive) | > 100 µM (inactive) | > 100 µM (inactive) | 43.6 µM (inactive) | > 100 µM (inactive) | > 89.3 µM (inactive) | 51.2 µM (inactive) |
| N#Cc1c(-c2ccc(Cl)cc2)c(C#N)c(=O)n(NS(=O)(=O)c2ccccc2)c1O | 19.6 µM (inactive) | 28.8 µM (inactive) | 23.7 µM (inactive) | 22.3 µM | 49 µM (inactive) | 27.7 µM (inactive) | 22.5 µM (inactive) | 19.9 µM (inactive) | 23.3 µM (inactive) | 26.4 µM (inactive) | 29.8 µM (inactive) | 16.9 µM (inactive) | 28.2 µM (inactive) | 34.8 µM (inactive) | 24.9 µM (inactive) | 27.1 µM (inactive) | 21.8 µM (inactive) | 15.1 µM (inactive) | 27.9 µM (inactive) | 27 µM (inactive) |
| N/C(=N\c1ccccc1Cl)c1ccccc1N | > 100 µM (inactive) | > 100 µM (inactive) | > 100 µM (inactive) | > 100 µM | > 100 µM (inactive) | > 100 µM (inactive) | > 100 µM (inactive) | > 100 µM (inactive) | > 100 µM (inactive) | > 100 µM (inactive) | > 100 µM (inactive) | > 100 µM (inactive) | > 100 µM (inactive) | > 100 µM (inactive) | > 100 µM (inactive) | > 100 µM (inactive) | > 100 µM (inactive) | > 100 µM (inactive) | > 100 µM (inactive) | > 100 µM (inactive) |
| CCOC(=O)CC[C@H](NC(=O)[C@H](N)Cc1ccc(N(CCCl)CCCl)cc1)C(=O)OCC | 29.4 µM (inactive) | 35.4 µM (inactive) | 16 µM (inactive) | 18.1 µM | 3.61 µM (inactive) | 11 µM (inactive) | 0.386 µM (active) | 2.61 µM (inactive) | 29.4 µM (inactive) | 21.6 µM (inactive) | 9.55 µM (inactive) | 20.6 µM (inactive) | > 34.7 µM (inactive) | 36.1 µM (inactive) | > 100 µM (inactive) | 13.1 µM (inactive) | 14.2 µM (inactive) | 11.6 µM (inactive) | 4.53 µM (inactive) | 21.6 µM (inactive) |
| O=C(O)c1nc2cc(Cl)ccc2[nH]c1=O | > 100 µM (inactive) | > 100 µM (inactive) | > 100 µM (inactive) | > 100 µM | > 100 µM (inactive) | > 100 µM (inactive) | > 100 µM (inactive) | > 100 µM (inactive) | > 100 µM (inactive) | > 100 µM (inactive) | > 100 µM (inactive) | > 100 µM (inactive) | > 100 µM (inactive) | > 100 µM (inactive) | > 100 µM (inactive) | > 100 µM (inactive) | > 100 µM (inactive) | > 100 µM (inactive) | > 100 µM (inactive) | > 100 µM (inactive) |
| CCCCCCCCCc1c(O)c(O)c(CCCCCCCCC)c(CCCCCCCCC)c1CCCCCCCCC | > 100 µM (inactive) | > 100 µM (inactive) | > 100 µM (inactive) | > 100 µM | 96.8 µM (inactive) | > 100 µM (inactive) | > 100 µM (inactive) | > 100 µM (inactive) | > 100 µM (inactive) | > 100 µM (inactive) | > 100 µM (inactive) | 8.18 µM (inactive) | > 100 µM (inactive) | > 100 µM (inactive) | > 100 µM (inactive) | > 100 µM (inactive) | > 100 µM (inactive) | > 100 µM (inactive) | 30.2 µM (inactive) | > 100 µM (inactive) |
| CN(C)/C=C/c1ccnc2c1C(=O)c1ccccc1C2=O | 3.65 µM (inactive) | 8.99 µM (inactive) | 9.66 µM (inactive) | 3.34 µM | 2.03 µM (inactive) | 2.25 µM (inactive) | 22.5 µM (inactive) | 2.35 µM (inactive) | 30.6 µM (inactive) | 2.48 µM (inactive) | 17.2 µM (inactive) | 4.46 µM (inactive) | 10.5 µM (inactive) | 14.8 µM (inactive) | 31.9 µM (inactive) | 23.4 µM (inactive) | > 59.3 µM (inactive) | 2.79 µM (inactive) | 8.51 µM (inactive) | 15.6 µM (inactive) |
| Nc1nc(SCc2ccccc2[N+](=O)[O-])c2[nH]cnc2n1 | 26.7 µM (inactive) | > 76.6 µM (inactive) | > 57.7 µM (inactive) | > 56.5 µM | > 30.6 µM (inactive) | > 40.1 µM (inactive) | > 100 µM (inactive) | > 40.2 µM (inactive) | 39.4 µM (inactive) | > 61.1 µM (inactive) | > 65.2 µM (inactive) | 51.5 µM (inactive) | > 50.9 µM (inactive) | 32.8 µM (inactive) | 18.6 µM (inactive) | 62.2 µM (inactive) | > 62.8 µM (inactive) | > 53.3 µM (inactive) | > 31.8 µM (inactive) | > 69.5 µM (inactive) |
